Experimental data from article PMC12638379, “An innovative approach to development of new pyrazolylquinolin-2-one hybrids as dual EGFR and BRAF^V600E inhibitors” (Molecular Diversity, 2025).
Like-named read-outs stand apart in the source and are kept apart here.

Tested on: NCI 60 cancer cell lines
Assay: NCI anticancer screening over a panel of 60 cancer cells, single concentration 10 µM
Type: cell-based, human
Details: Homo sapiens, read-out: % Growth Inhibition (GI %)
Outline: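 Run under the NCI Compound Evaluation Branch protocol, each compound was tested once at 10 µM. The panel comprised 60 cancer cell lines of diverse tissue origin, including leukemia, lung, colon, CNS, renal, ovarian, breast and prostate.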

COc1ccc2[nH]c(=O)cc(-n3ncc(/C(C)=N/Nc4ccc(C(=O)O)cc4)c3C)c2c1 [Compound 4h, (E)-4-(2-(1-(1-(6-methoxy-2-oxo-1,2-dihydroquinolin-4-yl)-5-methyl-1H-pyrazol-4-yl)ethylidene)hydrazineyl)benzoic acid]
inhibition at 10 µM (786-0, Renal cancer 786-0, 10 μM): < 5%
inhibition at 10 µM (A498, Renal cancer A498, 10 μM): < 5%
inhibition at 10 µM (A549, Non-small cell lung cancer A549/ATCC, 10 μM): < 5%
inhibition at 10 µM (ACHN, Renal cancer ACHN, 10 μM): < 5%
inhibition at 10 µM (BT-549, Breast cancer BT-549, 10 μM): < 5%
inhibition at 10 µM (CAKI-1, Renal cancer CAKI-1, 10 μM): < 5%
inhibition at 10 µM (CCRF-CEM, Leukemia CCRF-CEM, 10 μM): < 5%
inhibition at 10 µM (COLO 205, Colon cancer COLO 205, 10 μM): < 5%
inhibition at 10 µM (DU-145, Prostate cancer DU-145, 10 μM): < 5%
inhibition at 10 µM (EKVX, Non-small cell lung cancer EKVX, 10 μM): < 5%
inhibition at 10 µM (HCC 2998, Colon cancer HCC-2998, 10 μM): < 5%
inhibition at 10 µM (HCT-15, Colon cancer HCT-15, 10 μM): < 5%
inhibition at 10 µM (HCT-116, Colon cancer HCT-116, 10 μM): < 5%
inhibition at 10 µM (HL-60, Leukemia HL-60(TB), 10 μM): < 5%
inhibition at 10 µM (HOP-62, Non-small cell lung cancer HOP-62, 10 μM): < 5%
inhibition at 10 µM (HOP-92, Non-small cell lung cancer HOP-92, 10 μM): 38.5%
inhibition at 10 µM (HT-29, Colon cancer HT29, 10 μM): < 5%
inhibition at 10 µM (Hs-578T, Breast cancer HS 578T, 10 μM): < 5%
inhibition at 10 µM (IGROV-1, Ovarian cancer IGROV1, 10 μM): < 5%
inhibition at 10 µM (K562, Leukemia K-562, 10 μM): < 5%
inhibition at 10 µM (KM12, Colon cancer KM12, 10 μM): < 5%
inhibition at 10 µM (LOX IMVI, Melanoma LOX IMVI, 10 μM): < 5%
inhibition at 10 µM (Leukemia SR, 10 μM): < 5%
inhibition at 10 µM (MCF7, Breast cancer MCF7, 10 μM): 5.52%
inhibition at 10 µM (MDA-MB-231, Breast cancer MDA-MB-231/ATCC, 10 μM): 4.98%
inhibition at 10 µM (MDA-MB-435, Melanoma MDA-MB-435, 10 μM): < 5%
inhibition at 10 µM (MDA-MB-468, Breast cancer MDA-MB-468, 10 μM): < 5%
inhibition at 10 µM (MOLT-4, Leukemia MOLT-4, 10 μM): < 5%
inhibition at 10 µM (Melanoma M14, 10 μM): < 5%
inhibition at 10 µM (Melanoma MALM-3M, 10 μM): < 5%
inhibition at 10 µM (NCI-H23, Non-small cell lung cancer NCI-H23, 10 μM): < 5%
inhibition at 10 µM (NCI-H226, Non-small cell lung cancer NCI-H226, 10 μM): < 5%
inhibition at 10 µM (NCI-H322M, Non-small cell lung cancer NCI-H322M, 10 μM): < 5%
inhibition at 10 µM (NCI-H460, Non-small cell lung cancer NCI-H460, 10 μM): < 5%
inhibition at 10 µM (NCI-H522, Non-small cell lung cancer NCI-H522, 10 μM): < 5%
inhibition at 10 µM (NCI/ADR-RES, Ovarian cancer NCI/ADR-RES, 10 μM): < 5%
inhibition at 10 µM (OVCAR-3, Ovarian cancer OVCAR-3, 10 μM): < 5%
inhibition at 10 µM (OVCAR-4, Ovarian cancer OVCAR-4, 10 μM): < 5%
inhibition at 10 µM (OVCAR-5, Ovarian cancer OVCAR-5, 10 μM): < 5%
inhibition at 10 µM (OVCAR-8, Ovarian cancer OVCAR-8, 10 μM): < 5%
inhibition at 10 µM (Prostate cancer PC-3, 10 μM): < 5%
inhibition at 10 µM (RPMI-8226, Leukemia RPMI-8226, 10 μM): < 5%
inhibition at 10 µM (RXF 393, Renal cancer RXF 393, 10 μM): < 5%
inhibition at 10 µM (SF-268, CNS Cancer SF-268, 10 μM): < 5%
inhibition at 10 µM (SF-295, CNS Cancer SF-295, 10 μM): < 5%
inhibition at 10 µM (SF-539, CNS Cancer SF-539, 10 μM): < 5%
inhibition at 10 µM (SK-MEL-2, Melanoma SK-MEL-2, 10 μM): < 5%
inhibition at 10 µM (SK-MEL-5, Melanoma SK-MEL-5, 10 μM): < 5%
inhibition at 10 µM (SK-MEL-28, Melanoma SK-MEL-28, 10 μM): < 5%
inhibition at 10 µM (SK-OV-3, Ovarian cancer SK-OV-3, 10 μM): < 5%
inhibition at 10 µM (SN12C, Renal cancer SN12C, 10 μM): < 5%
inhibition at 10 µM (SNB-19, CNS Cancer SNB-19, 10 μM): < 5%
inhibition at 10 µM (SNB-75, CNS Cancer SNB-75, 10 μM): < 5%
inhibition at 10 µM (SW-620, Colon cancer SW-620, 10 μM): < 5%
inhibition at 10 µM (T47D, Breast cancer T-47D, 10 μM): < 5%
inhibition at 10 µM (TK-10, Renal cancer TK-10, 10 μM): < 5%
inhibition at 10 µM (U-251, CNS Cancer U251, 10 μM): < 5%
inhibition at 10 µM (UACC-62, Melanoma UACC-62, 10 μM): < 5%
inhibition at 10 µM (UACC-257, Melanoma UACC-257, 10 μM): < 5%
inhibition at 10 µM (UO-31, Renal cancer UO-31, 10 μM): 22.6%
